target: T1, Integrin alpha-4/beta-7 (Homo sapiens, UniProt P13612+P26010); assay: alpha-4 beta-7 Integrin Cell Capture Assay
T1 sequence (P13612 whole entry): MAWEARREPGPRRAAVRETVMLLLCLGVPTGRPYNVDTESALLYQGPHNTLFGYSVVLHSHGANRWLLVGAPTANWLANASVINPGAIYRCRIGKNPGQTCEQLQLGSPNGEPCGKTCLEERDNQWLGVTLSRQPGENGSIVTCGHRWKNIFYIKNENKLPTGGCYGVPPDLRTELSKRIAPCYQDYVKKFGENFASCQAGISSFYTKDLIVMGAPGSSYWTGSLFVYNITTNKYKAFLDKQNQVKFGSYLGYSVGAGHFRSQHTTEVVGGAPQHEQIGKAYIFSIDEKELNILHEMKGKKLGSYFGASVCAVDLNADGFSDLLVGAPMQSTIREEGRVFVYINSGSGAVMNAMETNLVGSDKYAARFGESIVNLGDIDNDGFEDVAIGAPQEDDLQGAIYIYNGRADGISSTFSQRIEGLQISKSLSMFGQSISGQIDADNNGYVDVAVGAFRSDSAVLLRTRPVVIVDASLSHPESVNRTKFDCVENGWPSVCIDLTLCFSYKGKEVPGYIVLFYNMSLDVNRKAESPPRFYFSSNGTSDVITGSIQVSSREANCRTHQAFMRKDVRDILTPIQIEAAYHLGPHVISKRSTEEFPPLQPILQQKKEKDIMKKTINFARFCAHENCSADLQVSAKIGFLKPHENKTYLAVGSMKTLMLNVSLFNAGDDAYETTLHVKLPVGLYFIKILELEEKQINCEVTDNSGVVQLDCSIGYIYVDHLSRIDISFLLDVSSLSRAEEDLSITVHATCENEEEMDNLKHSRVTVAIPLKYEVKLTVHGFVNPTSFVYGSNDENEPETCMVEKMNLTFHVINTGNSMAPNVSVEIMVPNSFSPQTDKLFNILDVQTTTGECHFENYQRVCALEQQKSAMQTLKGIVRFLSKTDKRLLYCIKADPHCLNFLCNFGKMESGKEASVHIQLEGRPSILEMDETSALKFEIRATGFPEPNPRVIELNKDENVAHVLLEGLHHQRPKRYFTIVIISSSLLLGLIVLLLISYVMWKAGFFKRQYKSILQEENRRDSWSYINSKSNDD
T1 sequence (P26010 whole entry): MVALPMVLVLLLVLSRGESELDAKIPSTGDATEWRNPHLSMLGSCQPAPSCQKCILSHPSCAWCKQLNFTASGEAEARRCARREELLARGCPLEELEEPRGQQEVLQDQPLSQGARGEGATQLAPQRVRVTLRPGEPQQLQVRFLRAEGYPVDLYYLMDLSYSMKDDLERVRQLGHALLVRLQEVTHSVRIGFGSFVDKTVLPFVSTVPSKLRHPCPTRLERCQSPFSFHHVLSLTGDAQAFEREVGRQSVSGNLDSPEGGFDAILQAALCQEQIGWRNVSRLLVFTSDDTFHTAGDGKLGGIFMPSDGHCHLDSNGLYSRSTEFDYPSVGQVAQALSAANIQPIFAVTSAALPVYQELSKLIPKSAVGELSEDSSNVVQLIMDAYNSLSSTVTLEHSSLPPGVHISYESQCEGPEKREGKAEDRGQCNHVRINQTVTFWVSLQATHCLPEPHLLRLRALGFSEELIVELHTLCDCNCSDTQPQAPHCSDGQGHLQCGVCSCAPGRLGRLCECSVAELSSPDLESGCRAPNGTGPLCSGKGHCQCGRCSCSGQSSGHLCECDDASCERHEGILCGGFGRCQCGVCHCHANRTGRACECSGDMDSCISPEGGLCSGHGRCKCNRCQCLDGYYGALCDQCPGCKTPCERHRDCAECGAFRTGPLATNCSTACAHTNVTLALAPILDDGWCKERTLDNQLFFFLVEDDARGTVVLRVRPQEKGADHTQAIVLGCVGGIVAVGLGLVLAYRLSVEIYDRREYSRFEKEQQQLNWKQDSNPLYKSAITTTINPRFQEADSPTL
Protocol: The potency of inhibitors in preventing α4β7 integrin interaction with MadCAM-1 was measured by monitoring the capture of α4β7 integrin expressing cells on a recombinant MadCAM-1 extracellular domain-coated plate. 384-Well plates (Corning 3702) were coated with MadCAM-1 extracellular domain by dispensing 20 μL of MAdCAM-1 at 1.0 μg/mL per well and incubating overnight at 4° C. The plates were then washed with PBS and blocked with 3% BSA for 2 hours before being washed again.

| SMILES | EC50 |
| --- | --- |
| O=C(N[C@@H](Cc1ccc(-c2cc(F)c(F)cc2OCC2CC2)c2ncccc12)C(=O)O)c1c(F)cccc1F [US11116760, Example 10] | 21.2 nM |
| COc1ccn(C)c(=O)c1-c1ccc(C[C@H](NC(=O)c2c(F)cccc2F)C(=O)O)c2cccnc12 [US11116760, Example 13] | 8.5 nM |
| O=C(N[C@@H](Cc1ccc(-c2ccc(F)c3cccnc23)c2ncccc12)C(=O)O)c1c(F)cccc1F [US11116760, Example 15] | 9.3 nM |
| N#Cc1ccc(-c2ccc(C[C@H](NC(=O)c3c(Cl)ccc(F)c3F)C(=O)O)c3cccnc23)c(Cl)c1 [US11116760, Example 17] | 36.7 nM |
| COc1cc(F)c(C(=O)N[C@@H](Cc2ccc(-c3ccc(C#N)cc3Cl)c3ncccc23)C(=O)O)c(F)c1 [US11116760, Example 21] | 96.6 nM |
| CC(O)c1cc(F)c(C(=O)N[C@@H](Cc2ccc(-c3ccc(C#N)cc3Cl)c3ncccc23)C(=O)O)c(F)c1 (stereo partly drawn) [US11116760, Example 33] | 60.5 nM |
| CCOCc1cc(OC)c(-c2ccc(C[C@H](NC(=O)c3c(F)cc(N)cc3F)C(=O)O)c3cccnc23)c(OC)c1 [US11116760, Example 44] | 10.9 nM |
| CCOCc1cc(OC)c(-c2ccc(C[C@H](NC(=O)c3c(F)cc(NS(=O)(=O)c4ccc(-c5ccnc(F)c5)cc4)cc3F)C(=O)O)c3cccnc23)c(OC)c1 [US11116760, Example 50] | 0.4 nM |
| COc1c(-c2ccc(C[C@H](NC(=O)c3c(F)cccc3F)C(=O)O)c3cccnc23)c(=O)n(C)c2ccccc12 [US11116760, Example 67] | 1.6 nM |
| Cc1ccc(C(F)(F)F)c(-c2ccc(C[C@H](NC(=O)c3c(Cl)cccc3Cl)C(=O)O)c3cccnc23)n1 [US11116760, Example 68] | 14 nM |
| Nc1ccc(C(F)(F)F)c(-c2ccc(C[C@H](NC(=O)c3c(Cl)cccc3Cl)C(=O)O)c3cccnc23)n1 [US11116760, Example 72] | 5.5 nM |
| C[C@H]1CN(c2cc(F)c(C(=O)N[C@@H](Cc3ccc(-c4ccc(C#N)cc4Cl)c4ncccc34)C(=O)O)c(F)c2)CCO1 [US11116760, Example 84] | 11.7 nM |
| COc1ccnc(-c2ccc(C[C@H](NC(=O)c3c(F)cc(N4CCOC[C@@H]4C(F)(F)F)cc3F)C(=O)O)c3cccnc23)c1C(F)(F)F [US11116760, Example 93] | 0.4 nM |
| Cc1cnc(-c2ccc(C[C@H](NC(=O)c3c(F)cc(N4CCOC[C@@H]4C(F)(F)F)cc3F)C(=O)O)c3cccnc23)nc1C [US11116760, Example 97] | 3.2 nM |
| CC[C@@H](Nc1cc(F)c(C(=O)N[C@@H](Cc2ccc(-c3c(C(F)(F)F)c4cc(N(C)C)ccc4n(C)c3=O)c3ncccc23)C(=O)O)c(F)c1)C(F)(F)F [US11116760, Example 125] | 1 nM |
| CC[C@@H](Nc1cc(F)c(C(=O)N[C@@H](Cc2cc(F)c(-c3c(OC)cc(C)n(C)c3=O)c3ncccc23)C(=O)O)c(F)c1)C(F)(F)F [US11116760, Example 138] | 0.8 nM |
| CC1(Nc2cc(F)c(C(=O)N[C@@H](Cc3ccc(-c4ccc(C#N)cc4Cl)c4ncccc34)C(=O)O)c(F)c2)COC1 [US11116760, Example 152] | 51.7 nM |
| Cc1cc(C(F)(F)F)c(-c2ccc(C[C@H](NC(=O)c3c(F)cc(N[C@H](C4CC4)C(F)(F)F)cc3F)C(=O)O)c3cccnc23)c(=O)n1C [US11116760, Example 155] | 0.3 nM |
| N#Cc1ccc(-c2ccc(C[C@H](NC(=O)c3c(F)cc(NC(=O)c4ccccc4)cc3F)C(=O)O)c3cccnc23)c(Cl)c1 [US11116760, Example 169] | 88.6 nM |

| SMILES | EC50 |
| --- | --- |
| N#Cc1ccc(-c2ccc(C[C@H](NC(=O)c3c(F)cc(N[C@H]4CCC4(F)F)cc3F)C(=O)O)c3cccnc23)c(Cl)c1 [US11116760, Example 173] | 81.5 nM |
| CC1(C)CN(c2cc(F)c(C(=O)N[C@@H](Cc3ccc(-c4ccc(C#N)cc4Cl)c4ncccc34)C(=O)O)c(F)c2)CCO1 [US11116760, Example 213] | 28.6 nM |
| N#Cc1ccc(-c2ccc(C[C@H](NC(=O)c3c(F)cc(NC4COC4)cc3F)C(=O)O)c3cccnc23)c(Cl)c1 [US11116760, Example 214] | 28.6 nM |
| N#Cc1ccc(-c2ccc(C[C@H](NC(=O)c3c(F)cc(N4CCOC(C(F)(F)F)C4)cc3F)C(=O)O)c3cccnc23)c(Cl)c1 (stereo partly drawn) [US11116760, Example 245] | 33.6 nM |
| N#Cc1ccc(-c2ccc(C[C@H](NC(=O)c3c(F)cc(NC(C4CCOCC4)C(F)(F)F)cc3F)C(=O)O)c3cccnc23)c(Cl)c1 (stereo partly drawn) [US11116760, Example 247] | 35.2 nM |
| Cc1c(C)c(C)n(C)c(=O)c1-c1ccc(C[C@H](NC(=O)c2c(F)cc(N3CCOC[C@H]3C(F)(F)F)cc2F)C(=O)O)c2cccnc12 [US11116760, Example 251] | 3.1 nM |
| Cc1cc(C)nc(-c2ccc(C[C@H](NC(=O)c3c(F)cc(N4CCOC[C@@H]4C(F)(F)F)cc3F)C(=O)O)c3cccnc23)n1 [US11116760, Example 261] | 4 nM |
| N#Cc1ccc(-c2ccc(C[C@H](NC(=O)c3c(F)cc(NC4CCOCC4)cc3F)C(=O)O)c3cccnc23)c(Cl)c1 [US11116760, Example 262] | 30.6 nM |
| N#Cc1ccc(-c2ccc(C[C@H](NC(=O)c3c(F)cc(N4CCO[C@@H](C(F)(F)F)C4)cc3F)C(=O)O)c3cccnc23)c(Cl)c1 [US11116760, Example 265] | 68.8 nM |
| N#Cc1ccc(-c2ccc(C[C@H](NC(=O)c3ccc4[nH]ccc4c3Cl)C(=O)O)c3cccnc23)c(Cl)c1 [US11116760, Example 266] | 72.2 nM |
| CC(C)[C@H]1COCCN1c1cc(F)c(C(=O)N[C@@H](Cc2ccc(-c3ccc(C#N)cc3Cl)c3ncccc23)C(=O)O)c(F)c1 [US11116760, Example 292] | 26.9 nM |
| CC[C@@H](Nc1cc(F)c(C(=O)N[C@@H](Cc2ccc(-c3nccc(C)n3)c3ncccc23)C(=O)O)c(F)c1)C(F)(F)F [US11116760, Example 294] | 7.4 nM |
| CC[C@@H](Nc1cc(F)c(C(=O)N[C@@H](Cc2ccc(-c3ncc(C)c(C)n3)c3ncccc23)C(=O)O)c(F)c1)C(F)(F)F [US11116760, Example 309] | 11.9 nM |
| O=C(N[C@@H](Cc1ccc(-c2nccc(C(F)(F)F)c2Cl)c2ncccc12)C(=O)O)c1c(Cl)cccc1Cl [US11116760, Example 314] | 13.4 nM |
| C[C@@H]1CN(c2cc(F)c(C(=O)N[C@@H](Cc3ccc(-c4ccc(C#N)cc4Cl)c4ncccc34)C(=O)O)c(F)c2)CCO1 [US11116760, Example 328] | 19.4 nM |
| O=C(N[C@@H](Cc1ccc(-c2nccc(C#CC3CC3)c2C(F)(F)F)c2ncccc12)C(=O)O)c1c(Cl)cccc1Cl [US11116760, Example 330] | 21 nM |
| N#Cc1ccc(-c2ccc(C[C@H](NC(=O)c3c(F)cc(N[C@H](C4CCOCC4)C(F)(F)F)cc3F)C(=O)O)c3cccnc23)c(Cl)c1 [US11116760, Example 338] | 26.5 nM |
| Cc1cc2c(=O)n(-c3ccc(C[C@H](NC(=O)c4c(F)cc(N5CCOC[C@@H]5C(F)(F)F)cc4F)C(=O)O)c4cccnc34)c(=O)n(C)c2cn1 [US11116760, Example 424] | 0.15 nM |
| Cc1nc(-c2ccc(C[C@H](NC(=O)c3c(F)cc(N4CCOC[C@@H]4C(F)(F)F)cc3Cl)C(=O)O)c3cccnc23)c(=O)n(C)c1C [US11116760, Example 454] | 0.14 nM |
